Six compounds from ChEMBL document CHEMBL1909046, “DrugMatrix in vitro pharmacology data” can be followed below.
For Ki in this document: in other assays of this panel Not Active means under 50% inhibition at 10 µM.

Chain of Adenosine receptor A2a (P29274 whole entry): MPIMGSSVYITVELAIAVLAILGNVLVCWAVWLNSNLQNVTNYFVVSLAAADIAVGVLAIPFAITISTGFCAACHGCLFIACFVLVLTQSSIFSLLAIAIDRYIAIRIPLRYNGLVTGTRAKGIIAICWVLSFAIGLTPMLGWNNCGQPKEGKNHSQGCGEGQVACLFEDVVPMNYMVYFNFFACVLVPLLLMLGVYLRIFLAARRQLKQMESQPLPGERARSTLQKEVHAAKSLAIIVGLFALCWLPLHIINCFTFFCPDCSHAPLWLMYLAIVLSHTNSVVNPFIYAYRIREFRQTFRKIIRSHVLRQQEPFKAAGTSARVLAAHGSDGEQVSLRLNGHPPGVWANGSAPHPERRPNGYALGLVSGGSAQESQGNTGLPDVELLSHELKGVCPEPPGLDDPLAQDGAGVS
Chain of Cytochrome P450 2D6 (P10635 whole entry): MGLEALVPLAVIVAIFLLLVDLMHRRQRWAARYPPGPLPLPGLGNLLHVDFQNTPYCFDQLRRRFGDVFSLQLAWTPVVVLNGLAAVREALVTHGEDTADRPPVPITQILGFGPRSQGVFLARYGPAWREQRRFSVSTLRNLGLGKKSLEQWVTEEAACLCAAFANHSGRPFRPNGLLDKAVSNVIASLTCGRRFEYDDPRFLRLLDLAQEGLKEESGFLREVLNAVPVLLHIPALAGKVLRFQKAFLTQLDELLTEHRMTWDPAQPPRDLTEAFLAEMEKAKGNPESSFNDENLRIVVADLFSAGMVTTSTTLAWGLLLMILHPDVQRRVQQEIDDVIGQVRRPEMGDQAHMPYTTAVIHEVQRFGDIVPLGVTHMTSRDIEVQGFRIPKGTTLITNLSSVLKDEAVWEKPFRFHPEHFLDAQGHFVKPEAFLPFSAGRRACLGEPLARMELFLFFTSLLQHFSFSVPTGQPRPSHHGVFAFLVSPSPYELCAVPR

The target of the first data set is Mitogen-activated protein kinase 14 (Homo sapiens, UniProt Q16539). Also on record: species or system Escherichia coli.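 Also: inhibition of p38alpha enzyme activity in a biochemical kinase assay, with myelin basic protein serving as substrate; in other assays of this panel Not Active means under 50% inhibition at 10 µM.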
Chain of Mitogen-activated protein kinase 14 (Q16539 whole entry): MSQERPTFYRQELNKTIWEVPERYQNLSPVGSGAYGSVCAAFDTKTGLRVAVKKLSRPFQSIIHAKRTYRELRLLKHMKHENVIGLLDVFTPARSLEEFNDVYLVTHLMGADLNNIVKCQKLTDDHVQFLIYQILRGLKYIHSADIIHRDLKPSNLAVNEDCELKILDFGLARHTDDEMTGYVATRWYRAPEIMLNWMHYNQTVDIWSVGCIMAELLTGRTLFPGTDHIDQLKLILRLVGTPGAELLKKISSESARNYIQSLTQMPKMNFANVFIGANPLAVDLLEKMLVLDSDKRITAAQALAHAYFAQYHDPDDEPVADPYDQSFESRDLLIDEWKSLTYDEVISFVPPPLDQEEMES
Conditions: not given
Regarding `Cc1ccc(S(=O)(=O)NC(=O)NN2CC3CCCC3C2)cc1` (configuration not stated) [GLICLAZIDE], the IC50 entry is listed as “Not Active”.

Regarding `CC(C)Cc1ccc(C(C)C(=O)O)cc1` (configuration not stated) [IBUPROFEN], the IC50 entry is on record as “Not Active”.

`COc1ccc2c(c1)c(CC(=O)O)c(C)n2C(=O)c1ccc(Cl)cc1` [INDOMETHACIN]: the IC50 entry is “Not Active”.

On to `CCc1c2c(nc3ccc(OC(=O)N4CCC(N5CCCCC5)CC4)cc13)-c1cc3c(c(=O)n1C2)COC(=O)[C@]3(O)CC` [IRINOTECAN], for which the IC50 result is on record as “Not Active”.

Regarding `CC(C(=O)O)c1cccc(C(=O)c2ccccc2)c1` (configuration not stated) [KETOPROFEN], the IC50 entry is reported as “Not Active”.

With `Nc1ccn([C@@H]2CS[C@H](CO)O2)c(=O)n1` [LAMIVUDINE], the IC50 entry is on record as “Not Active”.

The next data set deals with Nitric oxide synthase 1 (Rattus norvegicus, UniProt P29476). The format is tissue-based, Cerebellum.
Chain of Nitric oxide synthase 1 (P29476 whole entry): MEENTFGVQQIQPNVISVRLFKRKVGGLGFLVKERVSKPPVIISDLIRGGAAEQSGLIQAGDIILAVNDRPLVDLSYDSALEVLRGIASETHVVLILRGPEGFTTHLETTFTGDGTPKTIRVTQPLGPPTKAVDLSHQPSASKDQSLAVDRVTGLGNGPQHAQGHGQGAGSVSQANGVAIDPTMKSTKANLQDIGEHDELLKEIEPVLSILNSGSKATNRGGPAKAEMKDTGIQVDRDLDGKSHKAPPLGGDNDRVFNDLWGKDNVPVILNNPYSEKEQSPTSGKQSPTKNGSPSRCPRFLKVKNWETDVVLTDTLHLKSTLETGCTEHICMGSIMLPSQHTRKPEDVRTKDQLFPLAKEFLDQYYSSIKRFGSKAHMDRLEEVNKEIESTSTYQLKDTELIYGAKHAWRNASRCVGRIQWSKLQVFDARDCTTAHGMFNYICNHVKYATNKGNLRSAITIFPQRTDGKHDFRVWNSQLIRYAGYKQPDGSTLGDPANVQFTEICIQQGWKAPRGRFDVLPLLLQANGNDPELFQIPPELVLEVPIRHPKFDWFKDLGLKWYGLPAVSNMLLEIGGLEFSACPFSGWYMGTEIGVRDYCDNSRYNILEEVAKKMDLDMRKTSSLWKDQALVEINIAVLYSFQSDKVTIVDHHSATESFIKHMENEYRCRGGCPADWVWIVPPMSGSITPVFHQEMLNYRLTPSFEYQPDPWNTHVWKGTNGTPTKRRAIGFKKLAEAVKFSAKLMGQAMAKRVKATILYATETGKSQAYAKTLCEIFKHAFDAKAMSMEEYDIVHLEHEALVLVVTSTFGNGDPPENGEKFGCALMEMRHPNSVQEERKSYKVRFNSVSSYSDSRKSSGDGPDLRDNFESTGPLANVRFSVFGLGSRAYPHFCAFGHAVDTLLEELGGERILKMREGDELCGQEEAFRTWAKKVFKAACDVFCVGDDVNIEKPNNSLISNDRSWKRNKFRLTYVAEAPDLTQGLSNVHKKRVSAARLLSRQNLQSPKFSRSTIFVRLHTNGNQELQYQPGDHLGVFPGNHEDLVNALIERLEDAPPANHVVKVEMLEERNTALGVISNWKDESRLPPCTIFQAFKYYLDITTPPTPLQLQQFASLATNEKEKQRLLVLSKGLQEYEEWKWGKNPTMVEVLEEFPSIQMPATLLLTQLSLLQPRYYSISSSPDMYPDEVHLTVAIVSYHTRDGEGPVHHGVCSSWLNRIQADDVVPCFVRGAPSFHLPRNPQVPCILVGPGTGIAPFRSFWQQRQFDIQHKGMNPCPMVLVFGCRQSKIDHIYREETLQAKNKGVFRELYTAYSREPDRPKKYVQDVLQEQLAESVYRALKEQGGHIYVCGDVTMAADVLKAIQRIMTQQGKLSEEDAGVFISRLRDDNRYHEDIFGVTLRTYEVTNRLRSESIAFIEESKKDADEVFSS
Conditions: not given
In the case of `Cc1ccc(S(=O)(=O)NC(=O)NN2CC3CCCC3C2)cc1` (configuration not stated) [GLICLAZIDE], the IC50 result is listed as “Not Active”.

Take `CC(C)Cc1ccc(C(C)C(=O)O)cc1` (configuration not stated) [IBUPROFEN]: the IC50 entry is listed as “Not Active”.

Turning to `COc1ccc2c(c1)c(CC(=O)O)c(C)n2C(=O)c1ccc(Cl)cc1` [INDOMETHACIN], the IC50 entry is “Not Active”.

On to `CCc1c2c(nc3ccc(OC(=O)N4CCC(N5CCCCC5)CC4)cc13)-c1cc3c(c(=O)n1C2)COC(=O)[C@]3(O)CC` [IRINOTECAN], for which the IC50 result is recorded as “Not Active”.

Turning to `CC(C(=O)O)c1cccc(C(=O)c2ccccc2)c1` (configuration not stated) [KETOPROFEN], the IC50 result is “Not Active”.

In the case of `Nc1ccn([C@@H]2CS[C@H](CO)O2)c(=O)n1` [LAMIVUDINE], the IC50 result is given as “Not Active”.

Another data set has as its target T1, Substance-K receptor (Homo sapiens, UniProt P21452). Also: in other assays of this panel Not Active means under 50% inhibition at 10 µM.
T1 sequence (P21452 whole entry): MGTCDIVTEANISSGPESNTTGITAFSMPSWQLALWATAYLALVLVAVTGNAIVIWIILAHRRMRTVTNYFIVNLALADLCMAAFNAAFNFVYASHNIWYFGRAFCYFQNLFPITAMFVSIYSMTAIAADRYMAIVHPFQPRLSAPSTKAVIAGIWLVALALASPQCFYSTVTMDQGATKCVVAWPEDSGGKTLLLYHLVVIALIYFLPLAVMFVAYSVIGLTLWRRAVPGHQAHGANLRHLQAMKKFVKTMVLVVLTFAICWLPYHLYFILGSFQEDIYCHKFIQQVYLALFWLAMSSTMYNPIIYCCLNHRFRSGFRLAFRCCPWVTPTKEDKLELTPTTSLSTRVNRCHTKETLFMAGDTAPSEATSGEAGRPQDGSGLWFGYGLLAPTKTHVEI
The class given is cell membranes, CHO, Membrane. Conditions: cho.
In the case of `Cc1ccc(S(=O)(=O)NC(=O)NN2CC3CCCC3C2)cc1` (configuration not stated) [GLICLAZIDE], the IC50 entry is “Not Active”.

Take `CC(C)Cc1ccc(C(C)C(=O)O)cc1` (configuration not stated) [IBUPROFEN]: the IC50 result is “Not Active”.

Consider `COc1ccc2c(c1)c(CC(=O)O)c(C)n2C(=O)c1ccc(Cl)cc1` [INDOMETHACIN], for which the IC50 entry is given as “Not Active”.

As for `CCc1c2c(nc3ccc(OC(=O)N4CCC(N5CCCCC5)CC4)cc13)-c1cc3c(c(=O)n1C2)COC(=O)[C@]3(O)CC` [IRINOTECAN], the IC50 result is reported as “Not Active”.

For `CC(C(=O)O)c1cccc(C(=O)c2ccccc2)c1` (configuration not stated) [KETOPROFEN], the IC50 result is reported as “Not Active”.

As for `Nc1ccn([C@@H]2CS[C@H](CO)O2)c(=O)n1` [LAMIVUDINE], the IC50 result is “Not Active”.

The next data set addresses Cytochrome P450 2D6 (Homo sapiens, UniProt P10635). The following applies: bti-tn-5b1-4.
As to `Cc1ccc(S(=O)(=O)NC(=O)NN2CC3CCCC3C2)cc1` (configuration not stated) [GLICLAZIDE], the IC50 entry is reported as “Not Active” and the Ki result is on record as “Not Active”.

For the compound `CC(C)Cc1ccc(C(C)C(=O)O)cc1` (configuration not stated) [IBUPROFEN], the IC50 result is reported as “Not Active” and the Ki entry was “Not Active”.

On to `COc1ccc2c(c1)c(CC(=O)O)c(C)n2C(=O)c1ccc(Cl)cc1` [INDOMETHACIN], for which the IC50 entry is recorded as “Not Active” and the Ki result is listed as “Not Active”.

With `CCc1c2c(nc3ccc(OC(=O)N4CCC(N5CCCCC5)CC4)cc13)-c1cc3c(c(=O)n1C2)COC(=O)[C@]3(O)CC` [IRINOTECAN], the IC50 entry is reported as “Not Active” and the Ki result is reported as “Not Active”.

With `CC(C(=O)O)c1cccc(C(=O)c2ccccc2)c1` (configuration not stated) [KETOPROFEN], the IC50 result was “Not Active” and the Ki entry is “Not Active”.

For `Nc1ccn([C@@H]2CS[C@H](CO)O2)c(=O)n1` [LAMIVUDINE], the IC50 entry is listed as “Not Active” and the Ki result is recorded as “Not Active”.

The target of another data set is T2, Amine oxidase [flavin-containing] A (Homo sapiens, UniProt P21397).
T2 sequence (P21397 whole entry): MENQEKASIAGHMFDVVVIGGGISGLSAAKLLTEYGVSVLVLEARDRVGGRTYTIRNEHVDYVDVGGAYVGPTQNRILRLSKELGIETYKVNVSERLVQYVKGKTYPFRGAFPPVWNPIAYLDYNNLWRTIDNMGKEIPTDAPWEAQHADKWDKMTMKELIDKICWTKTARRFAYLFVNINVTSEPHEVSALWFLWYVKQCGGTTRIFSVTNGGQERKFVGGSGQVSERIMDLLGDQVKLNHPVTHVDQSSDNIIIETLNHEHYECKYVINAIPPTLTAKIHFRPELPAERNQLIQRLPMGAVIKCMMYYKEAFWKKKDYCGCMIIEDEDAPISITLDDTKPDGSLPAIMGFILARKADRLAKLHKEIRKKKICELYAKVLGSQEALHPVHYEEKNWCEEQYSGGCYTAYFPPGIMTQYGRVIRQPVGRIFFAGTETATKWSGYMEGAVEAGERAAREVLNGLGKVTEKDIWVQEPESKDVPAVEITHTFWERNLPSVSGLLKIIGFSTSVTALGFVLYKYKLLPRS
The data set is described as follows: DRUGMATRIX: Monoamine Oxidase MAO-A enzyme inhibition (substrate: Kynuramine). Conditions: bti-tn-5b1-4; Not Active = under 50% inhibition at 10 µM. Also on record: species or system BTI-TN-5B1-4.
On to `Cc1ccc(S(=O)(=O)NC(=O)NN2CC3CCCC3C2)cc1` (configuration not stated) [GLICLAZIDE], for which the IC50 result is “Not Active”.

With `CC(C)Cc1ccc(C(C)C(=O)O)cc1` (configuration not stated) [IBUPROFEN], the IC50 result is listed as “Not Active”.

As to `COc1ccc2c(c1)c(CC(=O)O)c(C)n2C(=O)c1ccc(Cl)cc1` [INDOMETHACIN], the IC50 result is “Not Active”.

For the compound `CCc1c2c(nc3ccc(OC(=O)N4CCC(N5CCCCC5)CC4)cc13)-c1cc3c(c(=O)n1C2)COC(=O)[C@]3(O)CC` [IRINOTECAN], the IC50 result was “Not Active”.

Take `CC(C(=O)O)c1cccc(C(=O)c2ccccc2)c1` (configuration not stated) [KETOPROFEN]: the IC50 entry was “Not Active”.

For the compound `Nc1ccn([C@@H]2CS[C@H](CO)O2)c(=O)n1` [LAMIVUDINE], the IC50 result is “Not Active”.

The next data set has as its target Adenosine receptor A2a (Homo sapiens, UniProt P29274). Kind of data set: DRUGMATRIX: Adenosine A2A radioligand binding (ligand: […]). The class given is cell membranes, HEK293, Membrane. The following applies: hek293; Not Active = under 50% inhibition at 10 µM.
Regarding `Cc1ccc(S(=O)(=O)NC(=O)NN2CC3CCCC3C2)cc1` (configuration not stated) [GLICLAZIDE], the IC50 entry was “Not Active”.

Regarding `CC(C)Cc1ccc(C(C)C(=O)O)cc1` (configuration not stated) [IBUPROFEN], the IC50 result is listed as “Not Active”.

`COc1ccc2c(c1)c(CC(=O)O)c(C)n2C(=O)c1ccc(Cl)cc1` [INDOMETHACIN]: the IC50 entry is “Not Active”.

On to `CCc1c2c(nc3ccc(OC(=O)N4CCC(N5CCCCC5)CC4)cc13)-c1cc3c(c(=O)n1C2)COC(=O)[C@]3(O)CC` [IRINOTECAN], for which the IC50 entry is listed as “Not Active”.

Take `CC(C(=O)O)c1cccc(C(=O)c2ccccc2)c1` (configuration not stated) [KETOPROFEN]: the IC50 entry is recorded as “Not Active”.

In the case of `Nc1ccn([C@@H]2CS[C@H](CO)O2)c(=O)n1` [LAMIVUDINE], the IC50 entry is “Not Active”.
